In series [1] the test system is Human immunodeficiency virus. Nature of the series: Inhibition of HIV protease at 1 nM.
Series [2] can be described thus: Selectivity index, Ratio of LC50 for MT4 cells to EC50 for HIV1 3B. The series is classed as functional.
Series [3] is described as follows: Inhibition of HIV protease. Also noted: species or system Human immunodeficiency virus.
The test system of series [4] is Human immunodeficiency virus 1. Nature of the series: Antiviral activity against HIV1 3B in MT4 cells by MTT assay. The settings on record: Human immunodeficiency virus 1, 3B. The series is classed as functional, organism-based.
A short description of series [5]: Cytotoxicity against MT4 cells by MTT assay. It counts as cell-based. The settings on record: human, read-out: LC50 (the source's name). (In general: Formazan colour is commonly taken as a measure of viable cells.)
Series [6] has as its system Human immunodeficiency virus 1. Briefly: Antiviral activity against HIV1 NL432. The settings on record: Human immunodeficiency virus 1, NL432. It counts as functional, organism-based.
The test system of series [7] is Human immunodeficiency virus 1. Nature of the series: Antiviral activity against ritonavir-resistant HIV1 NL432. It counts as functional, organism-based. The settings on record: Human immunodeficiency virus 1, NL432.
Series [8] concerns Human immunodeficiency virus 1. Nature of the series: Antiviral activity against nelfinavir-resistant HIV1 NL432. It counts as functional, organism-based. The settings on record: Human immunodeficiency virus 1, NL432.
Series [9] deals with Human immunodeficiency virus 1. Nature of the series: Antiviral activity against ritonavir and nelfinavir-resistant HIV1 NL432. The settings on record: Human immunodeficiency virus 1, NL432. The series is classed as functional, organism-based.

In general, inhibition refers to the relative decrease from the control value, in per cent. A high value points to strong suppression. One may read the IC50 as the midpoint of a concentration-inhibition curve. As usually defined, the EC50 is the concentration that produces a half-maximal response. Higher therefore signals lower potency in that assay.

Consider `COc1ccc(CSC[C@@H](NC(C)=O)C(=O)N[C@@H](Cc2ccccc2)[C@H](O)C(=O)N2CSC(C)(C)[C@H]2C(=O)NCc2ccccc2C)cc1`, for which, in series [1], the inhibition stood at 87%. Further, the Selectivity index in series [2] came out at 1308. In addition, the IC50 in series [3] amounted to 0.18 nM. For the same molecule, the EC50 in series [4] was 13 nM; in series [6], 17 nM; in series [7], 18 nM; in series [8], 2.4 nM; in series [9], 14 nM. Further, in series [5], the CC50 was found to be 17000 nM.

In series [1], `Cc1cc(C)c(NC(CSc2cccc3ccccc23)C(=O)N[C@@H](Cc2ccccc2)[C@H](O)C(=O)N2CSC(C)(C)[C@H]2C(=O)NCc2ccccc2C)c(C)c1` (stereo partly specified) gave an inhibition of 74%. In addition, the Selectivity index in series [2] came to 688. The EC50 in series [4] stood at 6.4 nM; in [6] it was 9.3 nM; in series [7], 17 nM; in [8], 0.67 nM; in series [9], 13 nM. Besides, the CC50 in series [5] turned out to be 4400 nM.

With `CC(=O)NC(CSc1ccc2ccccc2c1)C(=O)N[C@@H](Cc1ccccc1)[C@H](O)C(=O)N1CSC(C)(C)[C@H]1C(=O)NCc1ccccc1C` (stereo partly specified), the inhibition in series [1] is 53%. In series [2], the Selectivity index came out at 461. Further, the EC50 in series [4] was found to be 18 nM; in series [6], 17 nM; in series [7] it was 65 nM; in [8], 7.2 nM; in [9], 32 nM. For the same molecule, the CC50 in [5] worked out at 8300 nM.

For the molecule `CC(=O)NC(CS(=O)(=O)c1cccc2ccccc12)C(=O)N[C@@H](Cc1ccccc1)[C@H](O)C(=O)N1CSC(C)(C)[C@H]1C(=O)NCc1ccccc1C` (stereo partly specified), in [1], the inhibition was found to be 97%. For the same molecule, the Selectivity index in series [2] worked out at 400. This molecule also displayed an IC50 in series [3] of 0.09 nM. For the same molecule, the midpoint of the response in [4], the EC50, lay at 40 nM. Moreover, the CC50 in series [5] was 16000 nM.

With `COc1ccc(CS(=O)(=O)C[C@@H](NC(C)=O)C(=O)N[C@@H](Cc2ccccc2)[C@H](O)C(=O)N2CSC(C)(C)[C@H]2C(=O)NCc2ccccc2C)cc1`, in series [1], the inhibition stood at 59%. Further, in series [2], the Selectivity index is given as >265. Besides, in series [4], the EC50 stood at 102 nM. The CC50 in series [5] is > 27000 nM.

As for `CC(=O)NC(CSc1cccc2ccccc12)C(=O)N[C@@H](Cc1ccccc1)[C@H](O)C(=O)N1CSC(C)(C)[C@H]1C(=O)NCc1ccccc1C` (stereo partly specified), in series [1], the inhibition is 68%. Besides, in [2], the Selectivity index is 471. Also, the EC50 in [4] is 13 nM; in series [6], 70 nM; in series [7], 18 nM; in [8], 6.3 nM; in series [9], 52 nM. Further, the CC50 in [5] was 8000 nM.

Regarding `CC(=O)NC(CS(=O)(=O)c1ccc2ccccc2c1)C(=O)N[C@@H](Cc1ccccc1)[C@H](O)C(=O)N1CSC(C)(C)[C@H]1C(=O)NCc1ccccc1C` (stereo partly specified), in series [1], the inhibition stood at 96%. In series [2], the Selectivity index was found to be 571. In series [3], this molecule returned an IC50 of 0.086 nM. The molecule also returned an EC50 in [4] of 28 nM. In addition, in series [5], the CC50 came out at 16000 nM.

With `Cc1ccccc1CNC(=O)[C@H]1N(C(=O)[C@@H](O)[C@H](Cc2ccccc2)NC(=O)C(CS(=O)(=O)c2cccc3ccccc23)NS(C)(=O)=O)CSC1(C)C` (stereo partly specified), the inhibition in series [1] is 97%. The same molecule came in with a half-inhibitory concentration (IC50) in series [3] of 0.083 nM.

In [1], `Cc1cc(C)c(NC(CSc2ccc3ccccc3c2)C(=O)N[C@@H](Cc2ccccc2)[C@H](O)C(=O)N2CSC(C)(C)[C@H]2C(=O)NCc2ccccc2C)c(C)c1` (stereo partly specified) yielded an inhibition of 67%. Moreover, the Selectivity index in [2] was 469. Also, the EC50 in series [4] worked out at 13 nM; in series [6] it was 17 nM; in series [7], 31 nM; in series [8] it was 0.8 nM; in series [9], 23 nM. The CC50 in series [5] amounted to 6100 nM.

As for `CSC[C@H](NC(=O)COc1cccc2cnccc12)C(=O)N[C@@H](Cc1ccccc1)[C@H](O)C(=O)N1CSC[C@H]1C(=O)NC(C)(C)C`, the inhibition in series [1] is 40%. Moreover, the Selectivity index in series [2] is given as >1363. Moreover, the EC50 in series [4] turned out to be 22 nM. For the same molecule, the CC50 in series [5] was > 30000 nM.

In [1], `COc1ccc(CS(=O)(=O)C[C@@H](Nc2c(C)cc(C)cc2C)C(=O)N[C@@H](Cc2ccccc2)[C@H](O)C(=O)N2CSC(C)(C)[C@H]2C(=O)NCc2ccccc2C)cc1` gave an inhibition of 66%. The Selectivity index in series [2] is recorded as >128. The molecule further registered an EC50 in series [4] of 203 nM. In addition, the CC50 in series [5] is > 26000 nM.

Turning to `CC(C)(C)NC(=O)c1ccccc1C[C@H](O)[C@@H](Cc1ccccc1)NC(=O)[C@H](CS(=O)(=O)c1ccc(Cl)cc1)NS(C)(=O)=O`, the IC50 in series [3] was found to be 0.34 nM.

As to `CC(C)c1nc(CN(C)C(=O)N[C@H](C(=O)N[C@@H](Cc2ccccc2)C[C@H](O)[C@H](Cc2ccccc2)NC(=O)OCc2cncs2)C(C)C)cs1` [RITONAVIR], the inhibition in series [1] was 90%. Besides, the EC50 in series [4] was determined as 36 nM; in series [6], 80 nM; in [7] it was 220 nM; in [9], 162 nM.

In series [1], `Cc1ccccc1CNC(=O)[C@H]1N(C(=O)[C@@H](O)[C@H](Cc2ccccc2)NC(=O)C(CS(=O)(=O)c2ccc3ccccc3c2)NS(C)(=O)=O)CSC1(C)C` (stereo partly specified) registered an inhibition of 98%. In series [3], this molecule came in with an IC50 of 0.09 nM.

`Cc1c(O)cccc1C(=O)N[C@@H](CSc1ccccc1)[C@H](O)CN1C[C@H]2CCCC[C@H]2C[C@H]1C(=O)NC(C)(C)C` gave an inhibition in [1] of 29%. Besides, the Selectivity index in series [2] was 688. Also, the EC50 worked out at 16 nM in series [4]; 25 nM in series [6]; 28 nM in series [7]; 308 nM in [8]; 67 nM in [9]. For the same molecule, in series [5], the CC50 was found to be 11000 nM.

Values taken from ChEMBL document CHEMBL1145381, “Synthesis and antiviral property of allophenylnorstatine-based HIV protease inhibitors incorporating D-cysteine derivatives as P2/P3 moieties” (Bioorg Med Chem Lett, 2007).
